Results from patent US7348305B2, “Inhibitor of cardiac tachyarrhythmias” (Department of Veterans Affairs, Rehabilitation, priority 2003, dated 2008).
Entries after “also recorded” stand apart in the source; their conditions may differ. Where two headings read alike, the source gives them in different places.

Key:
[1] = tested on: proteasome; experiment: Proteasome chymotrypsin-like peptidase activity in myocardial tissue (RS, EBZ, INF) after injection; type: in vivo, dog; details: 0.175 mg/kg, INF tissue 23-hr after LAD ligation, n=4, control tissues averaged 45 FU/100 μg protein/min
Method: (§1) Whole blood was measured at each time interval (FIGS. 29A and 29B), and ischemic myocardial tissue proteasome activity was measured at the final time interval (FIG. 30).
(§2) Proteasome activity: Activity was determined by proteasome chymotrypsin-like peptidase activity assay. Both cardiac (all groups) and whole blood cell (groups 4 and 5) proteasome activity was assayed. 30 mg frozen cardiac tissue was powdered in liquid nitrogen and sonicated in 0.5 ml buffer. Samples were then centrifuged for 30 min at 10,000 g at 4° C. and the supernatant was used for the assay. For preparing whole blood cell, heparinized blood was washed one time with saline and twice with cold PBS. The cells were lysed with EDTA (5 mM, pH 8.0) for 1 hr and centrifuged at 6600 g for 10 min at 4° C. and the supernatant was used for the assay. 0.4 mM Suc-Ala-Ala-Phe-MAC (Bachem California) was used as substrate. […] The time course for fluorescence was measured using a VICTOR3 Multilabel Counter (Perkin Elmer, Inc) at time 0 and every 5 min for 1 h to estimate the MAC liberated (excitation 380 nm, emission 460 nm). Slopes and intercepts were calculated using Microsoft Excel. Final results were expressed as fluorescence units/μg protein/min.

[2] = tested on: β-adrenergic receptor kinase (βARK); experiment: βARK immunoblot of EBZ tissue 24 hr after LAD ligation (Model 1); type: in vivo, dog; details: bortezomib pretreated dog versus saline control, 24-hour infarct
Method: βARK immunoblots were used to estimate βARK expression (Yu et al., 2000).
Western Blot Analysis: Assessment of βARK content was conducted using standard SDS-PAGE and immunoblot techniques. Samples containing 100 μg of protein from myocardial extracts were electrophoresed using 10% SDS-PAGE and transferred to nitrocellulose membranes. The membrane was incubated with monoclonal anti-βARK (Upstate Biotechnology, Inc, Lake Placid, N.Y.), followed by exposure to peroxidase-linked anti-mouse IgG. Antibody binding was detected by a chemiluminescent method (ECL, Amersham Biosciences Corp, Piscataway, N.J.). Quantification of immunoreactive proteins was performed by densitometric scanning and with Image QuaNT software (Molecular Dynamics).
β-ARK, Proteasome and Ubiquitin Expression Assays: β-ARK, ubiquitinated β-ARK and proteasome in EBZ and RS tissues was determined by Western blot analysis. Samples were adjusted after protein concentration was assayed (BCA, Pierce Chemicals) to provide identical loads. 100 μg protein was combined with equal volume of SDS sample buffer, and electrophoresed on a 10% polyacrylamide gel. The blocked membranes were incubated with mouse anti β-ARK monoclonal antibody (Santa Cruz Biotechnology, Santa Cruz, Calif.) for 1-h at room temperature followed by anti-mouse IgG coupled to horseradish peroxidase and developed using an ECL western blotting kit (Amersham). The bands were scanned, stripped and reprobed with mouse anti-ubiquitin antibody (Santa Cruz Biotechnology, Santa Cruz, Calif.). The membrane was rescanned, stripped a second time and reprobed with rabbit anti-proteasome 20S C2 subunit polyclonal antibody (A.G. Scientific, Inc. CA). A separate control gel was included that was similarly treated, but reprobed with the identical Ab and band quality and density compared to the previous data obtained before stripping. Quantitation of immunoreactive bands was performed by densitometric scanning using ImageQuant software (Molecular Dynamics).

[3] = tested on: proteasome; experiment: Proteasome chymotrypsin-like peptidase activity in packed whole blood cells after injection; type: in vivo, dog; details: 0.175 mg/kg, 1 hr before and 8 hr after LAD ligation; 1-24 hr after first injection; n=4
Method: as §1, §2

[4] = tested on: ventricular tachyarrhythmias following LAD coronary artery ligation; experiment: Model 1: two-stage LAD coronary artery ligation, Holter EKG monitoring 2-24 hr (ventricular triplets, sustained VT/VF, death); type: in vivo, dog; details: for fastest ventricular triplet rate observed per hour after LAD ligation (FIG. 18, FIG. 32): 4 to 24 hr after LAD ligation; for mortality (dogs died of group): 24 hr after LAD ligation, etanercept 2 mg/kg at -24 and -1 hr, bortezomib 0.0875 mg/kg at -1 and +6 hr, anakinra 10 mg/kg at -1 and +12 hr, control 4 of 10, preliminary
Method: The two-stage ligation procedure results in a very low incidence of ventricular fibrillation (<5-10%) during the initial 6 hours following coronary artery occlusion (Harris et al., 1951). Almost all ventricular fibrillation occurs during the initial 30 minutes with a high proportion of successful defibrillation. Ambulatory EKG monitoring is performed over the 2-24 hr period following coronary artery ligation. During the 6-24 hr period, a 25-40% incidence of rapid monomorphic ventricular tachycardia (385±15/min) leading to ventricular fibrillation is observed at 13.3±0.8 hours post-LAD ligation (FIG. 1), with a mean duration of monomorphic ventricular tachycardia preceding ventricular fibrillation of 66±7 sec. When provocative ventricular pacing is performed at 24 hours, however, the reentrant substrate supporting sustained ventricular tachycardia is present in more than 80% of the surviving dogs with no difference in rate between spontaneous and pacing-induced sustained monomorphic ventricular tachycardias (FIG. 3).
In the 24-hr Infarct (Model 1) Studies, each control and etanercept pretreated animal was monitored for ventricular arrhythmias using a Holter 2-lead recording for the duration of time following LAD ligation. […] In the saline control group, 4 animals died at 11-24 hours post ligation. […]
Model 1: Electrophysiologic correlates of myocardial infarction over a 24-hr period. Eighteen 15-22 kg male mongrel dogs were anesthetized with IV sodium pentobarbital (30 mg/kg). A cuffed endotracheal tube was inserted and the animals were ventilated with room air using a volume-cycled respirator. […] The dogs were extubated and allowed to awaken in a temperature-controlled, humidified small animal post-operative recovery unit. They were given nalbuphine 0.2 mg/kg for post-operative analgesia. During the 2-24 hr period following LAD ligation, Holter monitoring was performed and the two-lead EKG was recorded on magnetic tape. Dogs were re-anesthetized with sodium pentobarbital at 24-hr. The thoracotomy was reopened and the heart was removed and perfused with ice-cold Tyrode's buffer via the left main coronary artery. The outer 0.5-1.5 mm EBZ tissue overlying the infarct was shaved and a longitudinal sample of tissue from the LAD region was stained with triphenyltetrazolium chloride (0.1%) to determine viability of the EBZ. Triphenyltetrazolium (TTZ) forms a brick-red precipitate in the presence of active intracellular dehydrogenases, delineating vital tissue. Non-viable tissues are not stained and remain a pale color. […] Tissue samples from the RS, the EBZ and the infarct tissue were dissected rapidly on an ice-cold surface, placed in freezer vials, and frozen in liquid nitrogen. These samples were then stored at −70° C. for later assay.
EKG Analysis: Full disclosure EKG records were obtained at 10 mm/sec for the entire 2-24 hour post-occlusion period. All measurements and calculations were made by direct visual observation and manual counting.
Anti-TNFα Treatment: A dosage of 2 mg/kg hTNFR:Fc (supplied as etanercept, Amgen, Inc, Thousand Oaks, Calif.) or saline were injected IV into a forepaw vein at 24-hr and again 1-hr prior to LAD ligation. […] This dosage was used after consultation with the pharmaceutical corporate pharmacology section and based on unpublished internal data that this dosage would provide maximal sequestration of tissue and circulating TNFα.

[5] = target: β-adrenergic receptor / adenylate cyclase; details: read-out: mean EC50, isoproterenol-AC activity, SEM, n=4
Method: FIG. 10 illustrates an isoproterenol-AC activity dose-response curve in EBZ and RS tissue obtained 24 hours after LAD ligation. Data are shown for 1 of 4 experiments. Each point is mean of duplicate samples.

[6] = target: β-adrenergic receptors in epicardium; experiment: Action potential shortening with isoproterenol in epicardium; parameters: species or system dog
Text: This information is consistent with increased β-ARK-1 activity and decreased β-adrenergic receptor sensitivity in ventricular myocardium with chronic catecholamine administration or the converse, a decrease in β-ARK-1 with prolonged β-adrenergic receptor blockade (Pye et al., 2003).

[7] = tested on: ventricular tachyarrhythmias following LAD coronary artery ligation; details: nadolol-treated dogs (Patterson et al., 1986), cited from earlier work

For `CC(C)C[C@H](NC(=O)[C@H](Cc1ccccc1)NC(=O)c1cnccn1)B(O)O` [bortezomib], the “myocardial tissue proteasome activity 24-hr after first injection” value [1] was “decreased from control tissues”, the “protection against loss of βARK (GRK2) protein in EBZ, Western immunoblot (FIG. 34)” value [2] was “marked protection against loss of βARK protein; also recorded: significant protection against loss of GRK2 expression” and the “packed whole blood proteasome activity after injection” value [3] was “significant decrease in proteasome activity”. For the same molecule, the “fastest ventricular triplet rate observed per hour after LAD ligation (FIG. 18, FIG. 32)” value [4] was “marked decrease”, the “mortality (dogs died of group)” value [4] was 0 of 6 and the “very rapid (≧360 bpm) ventricular triplets versus control (FIG. 31B)” value ([4]; etanercept 2 mg/kg, bortezomib 0.0875 mg/kg) was “significant descrease; also recorded: no triplets in this range”.

For “anakinra: interleukin-1 antagonist (IL-1 inhibitor)”, the “fastest ventricular triplet rate observed per hour after LAD ligation (FIG. 18, FIG. 32)” value [4] was “no significant difference between etancercept and anakinra”, the “mortality (dogs died of group)” value [4] was 1 of 7 and the “rapid (>300 bpm) ventricular triplets per hour versus control (FIG. 31A)” value ([4]; etanercept 2 mg/kg, bortezomib 0.0875 mg/kg, anakinra 10 mg/kg) was “relatively low until 8 hours after LAD and then rose rapidly”.

With `CC(C)NCC(O)c1ccc(O)c(O)c1` (centres unmarked) [isoproterenol] the EC50 ([5]; EBZ tissue 24 hours after LAD ligation) was 18 ± 8.9 nM, the EC50 ([5]; RS tissue 24 hours after LAD ligation) was 73 ± 22 nM and the EC50 ([6]; control normal tissue) was 0.47 nM. The EC50 ([6]; remote site normal tissue, 24 hours post LAD ligation) was 14.3 nM.

In the case of `CC(C)(C)NCC(O)COc1cccc2c1CC(O)C(O)C2` (centres unmarked) [nadolol], the “incidence of sudden death, 2-24 hr after coronary artery ligation” value ([7]; FIG. 6) is listed as “reduce the incidence of sudden death”, the “rate and number of rapid ventricular triplets, 2-24 hr after coronary artery ligation” value ([7]; FIGS. 7 and 8) is listed as “reduce both the rate and number of rapid ventricular triplets” and the “incidence of pacing-induced sustained monomorphic reentrant tachycardia in surviving animals at 24 hours” value [7] is listed as “without reducing the incidence”. For the same molecule, the infarct mass [7] was “without altering infarct mass”.
